Data: patent publication EP1203770A1 (priority 1992, dated 1994)

Biological target: T1, HIV-1 protease (Human immunodeficiency virus type 1 group M subtype B, UniProt P04585)
T1 construct: The protease (or proteinase), consisting of only 99 amino acids, is among the smallest enzymes known
Assay: In vitro HIV protease inhibitory assay (HIV Protease FITC Assay)
Format: biochemical
Conditions: for inhibition at 0.41 µM: HIV-1 Dose 0.410 uM; for inhibition at 0.41 µM / inhibition at 1.23 µM / inhibition at 3.7 µM / inhibition at 11 µM / inhibition at 33 µM / inhibition at 100 µM / inhibition at 0.123 µM / inhibition at 0.37 µM / inhibition at 1.1 µM / inhibition at 3.3 µM / inhibition at 10 µM / inhibition at 30 µM: read-out: HIV-1 Protease % Inhib; for inhibition at 1.23 µM: HIV-1 Dose 1.230 uM; for inhibition at 3.7 µM: HIV-1 Dose 3.700 uM; for inhibition at 11 µM: HIV-1 Dose 11.000 uM; for inhibition at 33 µM: HIV-1 Dose 33.000 uM; for inhibition at 100 µM: HIV-1 Dose 100.000 uM; for Ki: read-out: HIV-1 FITC Ki; for inhibition at 0.123 µM: HIV-1 Dose 0.123 uM; for inhibition at 0.37 µM: HIV-1 Dose 0.370 uM; for inhibition at 1.1 µM: HIV-1 Dose 1.100 uM; for inhibition at 3.3 µM: HIV-1 Dose 3.300 uM; for inhibition at 10 µM: HIV-1 Dose 10.000 uM; for inhibition at 30 µM: HIV-1 Dose 30.000 uM
Outline: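 Percent inhibition was read as fluorescence after avidin-bead capture and filtration separated FITC cleavage product from biotinylated substrate. Enzyme and substrate reacted 1 h, RT, dark, at pH 5.5 (0.1 M sodium acetate, 1.0 M NaCl, 0.05% NP-40).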

CCC(CCOCCOC)c1cc(O)c(C(c2ccccc2)C2CC2)c(=O)o1 (centres unmarked) [Example 106, 3-(Cyclopropyl-phenyl-methyl)-6-(1-ethyl-3-(2-methoxy-ethoxy)-propyl)-4-hydroxy-pyran-2-one]
inhibition at 0.41 µM: 57.4%
inhibition at 1.23 µM: 82.1%
inhibition at 3.7 µM: 101%
inhibition at 11 µM: 111%
inhibition at 33 µM: 115%
inhibition at 100 µM: 119%
Ki: 58 nM

COCCOCCC(Cc1ccccc1)c1cc(O)c(C(c2ccccc2)C2CC2)c(=O)o1 (centres unmarked) [Example 107, 6-(1-Benzyl-3-(2-methoxy-ethoxy)-propyl)-3-(cyclopropyl-phenyl-methyl)-4-hydroxy-pyran-2-one]
inhibition at 0.41 µM: 50%
inhibition at 1.23 µM: 80.3%
inhibition at 3.7 µM: 100%
inhibition at 11 µM: 103%
inhibition at 33 µM: 109%
inhibition at 100 µM: 110%
Ki: 41 nM

COCCOCCOCCCc1cc(O)c(C(c2ccccc2)C2CC2)c(=O)o1 (centres unmarked) [Example 108]
inhibition at 0.41 µM: < 10%
inhibition at 1.23 µM: 20.4%
inhibition at 3.7 µM: 46.9%
inhibition at 11 µM: 76.7%
inhibition at 33 µM: 84.8%
inhibition at 100 µM: 118%
Ki: 607 nM

CCCc1oc(=O)c(C(CC)c2ccccc2)c(O)c1Br (centres unmarked) [Example 109, 5-Bromo-4-hydroxy-3-(1-phenyl-propyl)-6-propyl-pyran-2-one]
inhibition at 0.41 µM: 22.2%
inhibition at 1.23 µM: 51.8%
inhibition at 3.7 µM: 78.9%
inhibition at 11 µM: 106%
inhibition at 33 µM: 105%
inhibition at 100 µM: 108%
Ki: 203 nM

CCC(CC)c1oc(=O)c(C(c2ccccc2)C2CC2)c(O)c1CCOCCOC (centres unmarked) [Example 110, 3-(Cyclopropyl-phenyl-methyl)-6-(1-ethyl-propyl)-4-hydroxy-5-(2-(2-methoxy-ethoxy)ethyl)-pyran-2-one]
inhibition at 0.41 µM: < 10%
inhibition at 1.23 µM: 16.1%
inhibition at 3.7 µM: 43.2%
inhibition at 11 µM: 71.2%
inhibition at 33 µM: 88.6%
inhibition at 100 µM: 84.3%

CCC(Cc1ccccc1)c1oc(=O)c(C(CC)c2ccccc2)c(O)c1Br (centres unmarked) [Example 111, 6-(1-Benzyl-propyl)-5-bromo-4-hydroxy-3-(1-phenyl-propyl)-pyran-2-one]
inhibition at 0.41 µM: 41.7%
inhibition at 1.23 µM: 66.2%
inhibition at 3.7 µM: 92.2%
inhibition at 11 µM: 103%
inhibition at 33 µM: 102%
inhibition at 100 µM: 109%
Ki: 255 nM

COCCOCCOCCc1c(C(CC2CC2)CC2CC2)oc(=O)c(C(c2ccccc2)C2CC2)c1O (centres unmarked) [Example 112]
inhibition at 0.41 µM: < 10%
inhibition at 1.23 µM: < 10%
inhibition at 3.7 µM: 10.4%
inhibition at 11 µM: 18.9%
inhibition at 33 µM: 37.1%
inhibition at 100 µM: 46.5%

C=CC(C1=C(O)CC2(CCC3(CC2)OCCO3)OC1=O)c1ccccc1 (centres unmarked) [Example 113, 12-Hydroxy-11-(1-phenyl-allyl)-1,4,9-trioxa-dispiro[4.2.5.2]pentadec-11-en-10-one]
inhibition at 0.41 µM: < 10%
inhibition at 1.23 µM: 15.3%
inhibition at 3.7 µM: 42.8%
inhibition at 11 µM: 79.7%
inhibition at 33 µM: 101%
inhibition at 100 µM: 107%
Ki: 2560 nM

CCC(C1=C(O)CC2(CCC3(CC2)OCCO3)OC1=O)c1ccccc1 (centres unmarked) [Example 114, 12-Hydroxy-11-(1-phenyl-propyl)-1,4,9-trioxa-dispiro[4.2.5.2]pentadec-11-en-10-one]
inhibition at 0.41 µM: < 10%
inhibition at 1.23 µM: < 10%
inhibition at 3.7 µM: 25.8%
inhibition at 11 µM: 63.5%
inhibition at 33 µM: 67.5%
inhibition at 100 µM: 55.4%
Ki: 4290 nM

CCC(C1=C(O)CC2(CCC(=O)CC2)OC1=O)c1ccccc1 (centres unmarked) [Example 115, 4-Hydroxy-3-(1-phenyl-propyl)-1-oxa-spiro[5.5]undec-3-ene-2,9-dione]
inhibition at 0.41 µM: < 10%
inhibition at 1.23 µM: 27.1%
inhibition at 3.7 µM: 56.9%
inhibition at 11 µM: 91.5%
inhibition at 33 µM: 103%
inhibition at 100 µM: 94.8%
Ki: 1160 nM

CCC(C1=C(O)CC2(CCC(O)CC2)OC1=O)c1ccccc1 (centres unmarked) [Example 116, 4,9-Dihydroxy-3-(1-phenyl-propyl)-1-oxa-spiro[5.5]undec-3-en-2-one]
inhibition at 0.123 µM: < 10%
inhibition at 0.37 µM: < 10%
inhibition at 1.1 µM: < 10%
inhibition at 3.3 µM: 31.1%
inhibition at 10 µM: 62%
inhibition at 30 µM: 89.9%

O=c1oc(CC(O)c2ccco2)cc(O)c1C(c1ccccc1)C1CC1 (centres unmarked) [Example 117, 3-(Cyclopropyl-phenyl-methyl)-6-(2-furan-2-yl-2-hydroxy-ethyl)-4-hydroxy-pyran-2]
inhibition at 0.123 µM: < 10%
inhibition at 0.37 µM: < 10%
inhibition at 1.1 µM: 17%
inhibition at 3.3 µM: 51.2%
inhibition at 10 µM: 87%
inhibition at 30 µM: 101%
